Values belong to the compound of their own block, whether it stands above or below them. The source made the active and inactive calls. No cut-off for these calls is given here. Where a SMILES comes first, the peptide text is derived from it. [ ]: non-standard residue; d: D form. The star is where a group is joined. X2 = CC(C)(COP(=O)(O)OP(=O)(O)OC[C@H]1O[C@@H](n2cnc3c(N)ncnc32)[C@H](OP(=O)(O)O)[C@@H]1O)C(O)C(=O)NCCC(=O)NCC*; Mpa = O=C(O)CCS
Columns and labels:
[1] = Drug uptake in digitonin treated human HCT116 cells measured at 100 uM after 2 hrs of incubation by MALDI-MS; format: ADME, cell-based; conditions: hct-116, 2 h
Homo sapiens [2] = species: Homo sapiens; assay: Selectivity ratio of inhibition of human NatA to inhibition of human NatD
[3] = molecular target: T1, N-alpha-acetyltransferase 50 (Homo sapiens) (UniProt Q9GZZ1); assay: Inhibition of human NatE using AcCoA and MLGP peptide as substrate at 10 uM incubated for 40 min at room temperature
T1 sequence (whole entry): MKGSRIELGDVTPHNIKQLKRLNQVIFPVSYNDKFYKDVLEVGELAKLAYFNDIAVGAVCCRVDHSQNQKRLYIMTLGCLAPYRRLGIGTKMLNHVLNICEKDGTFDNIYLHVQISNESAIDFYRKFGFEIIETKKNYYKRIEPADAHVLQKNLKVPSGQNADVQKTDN

[4] = molecular target: N-alpha-acetyltransferase 40 (Homo sapiens) (UniProt Q86UY6); conditions: HCT-116, Lysate, dose 100.0 µM, time 2.0 hrs
Homo sapiens [5] = species: Homo sapiens; assay: Selectivity ratio of inhibition of human MOF to inhibition of human NatD
[6] = system: NatC (Schizosaccharomyces pombe); assay: Selectivity ratio of inhibition of Schizosaccharomyces pombe NatC to inhibition of human NatD
Homo sapiens [7] = species: Homo sapiens; assay: Inhibition of human NatA using AcCoA and H4 peptide as substrate at 1 uM incubated for 12 min at room temperature relative to control
[8] = molecular target: T2, Histone acetyltransferase KAT8 (Homo sapiens) (UniProt Q9H7Z6); assay: Inhibition of human MOF using AcCoA and H4 peptide as substrate at 1 uM incubated for 20 min at room temperature relative to control
T2 sequence (whole entry): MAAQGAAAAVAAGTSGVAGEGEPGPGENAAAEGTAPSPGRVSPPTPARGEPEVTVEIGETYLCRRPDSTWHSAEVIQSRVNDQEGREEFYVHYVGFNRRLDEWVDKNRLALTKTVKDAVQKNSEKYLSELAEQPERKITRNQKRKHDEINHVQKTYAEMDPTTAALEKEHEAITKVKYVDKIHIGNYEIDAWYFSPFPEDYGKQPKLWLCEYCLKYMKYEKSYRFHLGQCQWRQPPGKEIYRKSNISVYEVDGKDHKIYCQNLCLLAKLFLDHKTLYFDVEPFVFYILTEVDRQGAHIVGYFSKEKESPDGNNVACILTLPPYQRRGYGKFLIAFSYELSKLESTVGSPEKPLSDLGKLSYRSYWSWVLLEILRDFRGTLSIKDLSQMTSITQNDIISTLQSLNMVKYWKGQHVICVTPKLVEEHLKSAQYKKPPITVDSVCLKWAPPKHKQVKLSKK

[9] = molecular target: Histone acetyltransferase KAT2B (Homo sapiens) (UniProt Q92831); assay: Inhibition of human PCAF using AcCoA and H4 peptide as substrate at 10 uM incubated for 20 min at room temperature
Chain of Histone acetyltransferase KAT2B (Homo sapiens) (Q92831 whole entry, looked up): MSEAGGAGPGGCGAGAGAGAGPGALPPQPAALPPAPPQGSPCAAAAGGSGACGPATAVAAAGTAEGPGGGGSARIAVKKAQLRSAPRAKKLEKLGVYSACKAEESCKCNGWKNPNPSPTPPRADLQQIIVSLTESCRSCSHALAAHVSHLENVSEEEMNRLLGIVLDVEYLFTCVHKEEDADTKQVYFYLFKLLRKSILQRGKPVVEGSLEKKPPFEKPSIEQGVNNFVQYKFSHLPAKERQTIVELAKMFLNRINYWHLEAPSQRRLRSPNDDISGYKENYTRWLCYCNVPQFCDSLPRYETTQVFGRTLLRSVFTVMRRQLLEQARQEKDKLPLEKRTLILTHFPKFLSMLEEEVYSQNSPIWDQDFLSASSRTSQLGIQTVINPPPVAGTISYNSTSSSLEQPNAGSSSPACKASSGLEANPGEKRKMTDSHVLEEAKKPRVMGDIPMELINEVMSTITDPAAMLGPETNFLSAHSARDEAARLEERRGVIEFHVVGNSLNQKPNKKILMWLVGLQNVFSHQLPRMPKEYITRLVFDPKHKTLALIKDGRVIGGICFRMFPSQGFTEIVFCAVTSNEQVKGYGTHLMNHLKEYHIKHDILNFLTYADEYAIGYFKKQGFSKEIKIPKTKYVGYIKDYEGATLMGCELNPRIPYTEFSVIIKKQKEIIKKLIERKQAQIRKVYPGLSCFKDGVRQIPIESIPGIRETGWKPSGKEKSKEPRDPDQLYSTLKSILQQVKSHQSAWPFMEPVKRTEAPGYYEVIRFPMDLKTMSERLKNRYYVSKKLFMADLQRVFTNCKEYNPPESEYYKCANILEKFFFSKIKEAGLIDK

Homo sapiens [10] = species: Homo sapiens; assay: Inhibition of human NatB using AcCoA and MDVF peptide as substrate at 10 uM incubated for 10 min at room temperature
[11] = system: NatC (Schizosaccharomyces pombe); assay: Inhibition of Schizosaccharomyces pombe NatC using AcCoA and MLRF peptide as substrate at 10 uM incubated for 5 min at room temperature
[12] = molecular target: N-alpha-acetyltransferase 40 (Homo sapiens) (UniProt Q86UY6); assay: Non-competitive inhibition of human NatD using various concentration of [14C]acetyl-CoA and fixed human H4 peptide as substrate measured after 13 mins radioactive assay

Drug uptake [1]: Active
Structure (SMILES): CC(C)(COP(=O)(O)OP(=O)(O)OC[C@H]1O[C@@H](n2cnc3c(N)ncnc32)[C@H](OP(=O)(O)O)[C@@H]1O)C(O)C(=O)NCCC(=O)NCCSCCC(=O)N[C@@H](CO)C(=O)NCC(=O)N[C@@H](CCCNC(=N)N)C(=O)NCC(N)=O (stereo partly drawn)

Structure (SMILES): CC(C)(COP(=O)(O)OP(=O)(O)OC[C@H]1O[C@@H](n2cnc3c(N)ncnc32)[C@H](OP(=O)(O)O)[C@@H]1O)C(O)C(=O)NCCC(=O)NCCSCCC(=O)N[C@@H](CO)C(=O)NCC(=O)N[C@@H](CCCNC(=N)N)C(=O)NCC(=O)N[C@@H](CCCCN)C(N)=O (stereo partly drawn) ([Mpa](X2)SGRGK-NH2)
Selectivity ratio (Homo sapiens [2]): 1000
inhibition [3]: inactive
deltaT [4]: 1.7 °C
Selectivity ratio (Homo sapiens [5]): 1000
Selectivity ratio [6]: 10000
inhibition (Homo sapiens [7]): 10%
inhibition [8]: 10%
inhibition [9]: inactive
inhibition (Homo sapiens [10]): inactive
Drug uptake [1]: Active
inhibition [11]: inactive
alphaKi [12]: 2.1 nM
